From the supplement of paper PMC10307832

Tests used:
Experiment in all cases: relative viability (nuclei count vs DMSO), 5 days (fraction); higher = more cells survive
AZ505 + AZD7762 = compound: C1CCC(CC1)N(CCNCCC2=C3C(=C(C=C2)O)NC(=O)CO3)C(=O)CCNCCC4=CC(=C(C=C4)Cl)Cl [AZ505] + NC(=O)Nc1cc(-c2cccc(F)c2)sc1C(=O)N[C@H]1CCCNC1 [AZD7762] (partner 0.2 µM)
In short: (§1)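 Lung cancer cell lines were seeded in 1536-well plates and dosed by pin tool the next day, with either a single drug or a fixed anchor-drug dose combined with five library-drug doses (not always all listed) spaced in √10 steps. Five days later, one step fixed the cells and stained their nuclei (final 0.05% Triton X-100, 1% formaldehyde, 1 ug/ml Hoechst), and nuclei were counted on 4× images. Relative viability is the nuclei count in treated wells divided by the count in vehicle wells, and each value is the median of duplicate plates.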

AZ505 + Palbociclib = compound: C1CCC(CC1)N(CCNCCC2=C3C(=C(C=C2)O)NC(=O)CO3)C(=O)CCNCCC4=CC(=C(C=C4)Cl)Cl [AZ505] + CC(=O)c1c(C)c2cnc(Nc3ccc(N4CCNCC4)cn3)nc2n(C2CCCC2)c1=O [Palbociclib] (partner 0.5 µM)
In short: as §1

Dactolisib + Decitabine = compound: Cn1c(=O)n(-c2ccc(C(C)(C)C#N)cc2)c2c3cc(-c4cnc5ccccc5c4)ccc3ncc21 [Dactolisib] + Nc1ncn([C@H]2C[C@H](O)[C@@H](CO)O2)c(=O)n1 [Decitabine] (partner 2 µM)
In short: as §1

Dactolisib + Crizotinib = compound: Cn1c(=O)n(-c2ccc(C(C)(C)C#N)cc2)c2c3cc(-c4cnc5ccccc5c4)ccc3ncc21 [Dactolisib] + C[C@@H](Oc1cc(-c2cnn(C3CCNCC3)c2)cnc1N)c1c(Cl)ccc(F)c1Cl [Crizotinib] (partner 1 µM)
In short: as §1

Cell Line	relative viability (AZ505 + AZD7762; first compound 0.08 µM)	relative viability (AZ505 + AZD7762; first compound 0.253 µM)	relative viability (AZ505 + AZD7762; first compound 0.8 µM)	relative viability (AZ505 + AZD7762; first compound 2.53 µM)	relative viability (AZ505 + AZD7762; first compound 8 µM)	relative viability (AZ505 + Palbociclib; first compound 0.08 µM)	relative viability (AZ505 + Palbociclib; first compound 0.253 µM)	relative viability (AZ505 + Palbociclib; first compound 0.8 µM)	relative viability (AZ505 + Palbociclib; first compound 2.53 µM)	relative viability (AZ505 + Palbociclib; first compound 8 µM)	relative viability (Dactolisib + Decitabine; first compound 0.002 µM)	relative viability (Dactolisib + Decitabine; first compound 0.006325 µM)	relative viability (Dactolisib + Decitabine; first compound 0.02 µM)	relative viability (Dactolisib + Decitabine; first compound 0.06325 µM)	relative viability (Dactolisib + Decitabine; first compound 0.2 µM)	relative viability (Dactolisib + Crizotinib; first compound 0.002 µM)	relative viability (Dactolisib + Crizotinib; first compound 0.006325 µM)	relative viability (Dactolisib + Crizotinib; first compound 0.02 µM)	relative viability (Dactolisib + Crizotinib; first compound 0.06325 µM)	relative viability (Dactolisib + Crizotinib; first compound 0.2 µM)
NCI-H2347	0.548	0.659	0.554	0.553	0.578	0.37	0.451	0.38	0.448	0.485	0.682	0.581	0.62	0.541	0.473	0.836	0.619	0.613	0.46	0.464
NCI-H1993	0.629	0.722	0.609	0.854	0.943	0.599	0.705	0.621	0.583	0.713	0.722	0.503	0.511	0.389	0.46	0.84	0.761	0.66	0.594	0.585
NCI-H322M	0.629		0.582	0.616	0.545	0.53		0.473	0.489	0.503	0.759	0.712	0.631	0.661	0.608	0.827	1.02	0.863	0.684	0.641
NCI-H838	0.888	0.955	0.936	0.951	0.985	0.236	0.191	0.195	0.216	0.195	0.603	0.446	0.4	0.289	0.286	0.798	0.586	0.534	0.275	0.216
HARA	0.354		0.33	0.693	0.351	0.198	0.266	0.185	0.218	0.224	0.708	0.558	0.634	0.623	0.356	1.12	1.02	1.04	1.01	0.421
NCI-H2087	1.22	1.24	1.35	1.15	1.24	0.225	0.27	0.312	0.22	0.197	0.314	0.265	0.249	0.205	0.133	0.952	0.85	1.04	0.63	0.785
NCI-H1437	1.07	1.17	1.08	1.14	1.17	0.309	0.33	0.314	0.335	0.301	0.716	0.551	0.676	0.569	0.482	1.03	0.904	0.902	0.699	0.865
NCI-H1792	0.627	0.247	0.544	0.642	0.833	0.642		0.619	0.612	0.696	0.56	0.429	0.414	0.186	0.121	1.15	0.971	0.921	0.601	0.294
ChaGo-K-1	0.73	0.836	0.766	0.888	0.886	0.823	0.999	1	0.92	0.91	0.558	0.541	0.51	0.527	0.501	1.06	1.03	1.1	1.12	1.13
NCI-H650	0.917	0.243	0.879	1.29	0.944	0.279	0.377	0.322	0.395	0.309	0.488	0.27	0.364	0.282	0.302	0.627	0.747	0.752	0.519	0.393
LK-2	0.512	0.264	0.597	0.342	0.403	0.487	0.73	0.768	0.792	0.898	0.347	0.305	0.335	0.159	0.142	0.209	0.244	0.266	0.213	0.216
201T	0.63	0.572	0.688	0.596	0.613	0.36	0.353	0.331	0.357	0.353	0.87	0.864	0.808	0.706	0.477	1.03	1.04	0.998	0.977	0.913
HCC-44	1	0.964	0.916	1.03	1.02	0.966	1.03	0.945	0.976	0.91	1.04	0.976	0.937	0.944	0.878	0.879	0.763	0.816	0.446	0.414
H3255	0.737	0.883	0.906	0.942	0.957	0.292	0.31	0.301	0.298	0.302	0.671	0.614	0.559	0.511	0.415	0.974	0.813	0.912	0.556	0.391
NCI-H647	0.344	0.226	0.539	0.576	0.722	0.362	0.461	0.387	0.429	0.432	0.487	0.292	0.188	0.116	0.14	1.21	0.848	0.5	0.133	0.124
NCI-H23	0.228	0.146	0.255	0.268	0.157	0.465	0.522	0.505	0.533	0.485	0.295	0.296	0.316	0.263	0.234	0.455	0.408	0.614	0.357	0.257

Cell Line	relative viability (AZ505 + AZD7762; first compound 0.08 µM)	relative viability (AZ505 + AZD7762; first compound 0.253 µM)	relative viability (AZ505 + AZD7762; first compound 0.8 µM)	relative viability (AZ505 + AZD7762; first compound 2.53 µM)	relative viability (AZ505 + AZD7762; first compound 8 µM)	relative viability (AZ505 + Palbociclib; first compound 0.08 µM)	relative viability (AZ505 + Palbociclib; first compound 0.253 µM)	relative viability (AZ505 + Palbociclib; first compound 0.8 µM)	relative viability (AZ505 + Palbociclib; first compound 2.53 µM)	relative viability (AZ505 + Palbociclib; first compound 8 µM)	relative viability (Dactolisib + Decitabine; first compound 0.002 µM)	relative viability (Dactolisib + Decitabine; first compound 0.006325 µM)	relative viability (Dactolisib + Decitabine; first compound 0.02 µM)	relative viability (Dactolisib + Decitabine; first compound 0.06325 µM)	relative viability (Dactolisib + Decitabine; first compound 0.2 µM)	relative viability (Dactolisib + Crizotinib; first compound 0.002 µM)	relative viability (Dactolisib + Crizotinib; first compound 0.006325 µM)	relative viability (Dactolisib + Crizotinib; first compound 0.02 µM)	relative viability (Dactolisib + Crizotinib; first compound 0.06325 µM)	relative viability (Dactolisib + Crizotinib; first compound 0.2 µM)
NCI-H1944	0.455	0.519	0.727	0.389	0.474	0.346	0.325	0.339	0.3	0.308	0.502	0.416	0.45	0.272	0.262	1.18	1.06	1.03	0.46	0.392
NCI-H460	0.701	0.522	0.623	0.483	0.621	0.183	0.162	0.147	0.187	0.167	0.612	0.461	0.504	0.252	0.134	1.09	0.835	0.513	0.136	0.0929
EKVX		0.629	0.849	0.678	0.746		0.365	0.378	0.372	0.389	0.343	0.313	0.284	0.272	0.22	0.971	0.879	0.923	0.686	0.341
NCI-H358	0.466	0.52	0.422		0.526	0.122	0.156	0.153	0.139	0.151	0.303	0.204	0.202	0.141	0.127	0.702	0.705	0.738	0.391	0.189
EPLC-272H	0.451	0.253	0.433	0.424	0.343	0.272	0.291	0.315	0.298	0.35	0.36	0.364	0.317	0.281	0.23	0.949	0.564	0.647	0.494	0.483
NCI-H2126	0.939	1.02	1.02	0.985	1.08	0.353	0.375	0.365	0.366	0.338	0.645	0.663	0.55	0.462	0.416	1.07	1.03	0.98	0.713	0.537
LXF-289	1.07	1.04	1.14	1.03	1.16	0.552	0.608	0.568	0.594	0.588	0.455	0.4	0.388	0.357	0.399	0.822	0.779	0.896	0.942	0.708
NCI-H2405	0.45		0.605	0.605	0.665	0.427		0.441	0.463	0.426	0.803	0.76	0.687	0.429	0.352	0.758	0.867	0.849	0.541	0.38
NCI-H1755	0.348	0.471	0.495	0.421	0.432	0.42	0.46	0.434	0.441	0.442	0.87	0.768	0.766	0.673	0.536	0.931	0.802	0.823	0.596	0.438
HCC-78			0.75	0.719	0.558	0.452	0.409	0.4	0.435	0.434	0.834	0.854	0.619	0.612	0.455	0.316	0.331	0.285	0.266	0.222
LOU-NH91	0.734	0.737	0.744	0.775	0.781	0.55	0.534	0.551	0.562	0.536	0.772	0.791	0.795	0.623	0.565	0.718	0.715	0.698	0.593	0.515
NCI-H3122	0.923	1.01	1	0.974	1.03	0.212	0.228	0.18	0.19	0.197	0.376	0.369	0.415	0.284	0.304	0.284	0.297	0.228	0.213	0.217
HCC-827	0.25	0.163	0.49	0.204	0.263	0.416	0.551	0.374	0.509	0.525	0.387	0.343	0.337	0.27	0.294	0.978	0.897	0.992	0.809	0.506
NCI-H1975	0.674	0.614	0.765	0.703	0.81	0.531	0.473	0.505	0.621	0.564	0.387	0.349	0.394	0.286	0.25	1.18	0.948	0.7	0.358	0.34
NCI-H1651	0.43	0.412	0.472	0.467	0.48	0.512	0.517	0.502	0.498	0.523	0.644	0.689	0.503	0.327	0.314	0.861	0.891	0.777	0.679	0.57
NCI-H441	0.876	1.14	1.06	1.36	1.54	0.228	0.233	0.258	0.231	0.223	0.285	0.256	0.31	0.233	0.203	0.923	0.64	0.554	0.496	0.271
